In US7217710B2, “Substituted pyrazolopyrimidines” (SmithKline Beecham Corporation, priority 2001, dated 2007):

Assays:
Type in all cases: biochemical
[1] = biological target: T1, GST-VEGFR2 (Homo sapiens, UniProt P35968); test: VEGF-R2 Enzyme Assay (VEGF-E2), LANCE method
T1 construct: GST-VEGFR2, baculovirus expressed recombinant constructs of the intracellular domains; made in house

[2] = biological target: T2, catalytic domain of human VEGFR3 (Homo sapiens, UniProt P35916, H890Q); test: VEGFR-3 Homogenous Time-Resolved Fluorescence Assay (VEGFR-3-HTRF)
T2 construct: made in house; host or cells: Sf9 insect cells (baculovirus, pFastBac1)
T2 sequence (P35916 with tags, fused parts or gaps isoform P35916-1 H890Q): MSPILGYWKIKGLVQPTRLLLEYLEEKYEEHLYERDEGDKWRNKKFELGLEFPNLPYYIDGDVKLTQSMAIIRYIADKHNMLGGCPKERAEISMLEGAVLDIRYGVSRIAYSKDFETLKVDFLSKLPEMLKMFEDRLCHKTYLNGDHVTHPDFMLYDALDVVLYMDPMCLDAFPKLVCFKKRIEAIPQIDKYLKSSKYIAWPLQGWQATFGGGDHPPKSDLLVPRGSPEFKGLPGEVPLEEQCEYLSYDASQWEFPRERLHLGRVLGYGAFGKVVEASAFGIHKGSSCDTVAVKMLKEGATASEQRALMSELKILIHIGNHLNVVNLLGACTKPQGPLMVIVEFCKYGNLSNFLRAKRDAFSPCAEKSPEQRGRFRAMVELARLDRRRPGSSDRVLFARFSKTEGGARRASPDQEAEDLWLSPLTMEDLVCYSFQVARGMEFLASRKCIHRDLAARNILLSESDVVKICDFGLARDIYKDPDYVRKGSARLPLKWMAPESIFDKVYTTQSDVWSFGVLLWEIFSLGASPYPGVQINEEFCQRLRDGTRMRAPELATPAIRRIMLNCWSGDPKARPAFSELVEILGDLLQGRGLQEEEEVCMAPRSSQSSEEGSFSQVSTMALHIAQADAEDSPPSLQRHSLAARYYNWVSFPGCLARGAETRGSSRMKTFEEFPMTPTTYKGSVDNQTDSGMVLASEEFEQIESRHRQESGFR
Procedure, shortened: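 GST-tagged human VEGFR3 catalytic domain (aa 819–1298, Sf9-expressed), pre-autophosphorylated 45 min with ATP/Mg, then 1 nM enzyme with 0.36 μM biotinylated peptide, 75 μM ATP, 10 mM MgCl2, pH 7.2, 1.5 h at room temperature. EDTA stop; HTRF detection; IC50 from hyperbolic fit of % control.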

[3] = biological target: Recombinant GST-Tie2 (Homo sapiens, UniProt Q02763); test: Tie2 Fluorescence Polarization Kinase Activity Assay (TIE2-FP)
Sequence of Recombinant GST-Tie2 (Q02763 23-1124): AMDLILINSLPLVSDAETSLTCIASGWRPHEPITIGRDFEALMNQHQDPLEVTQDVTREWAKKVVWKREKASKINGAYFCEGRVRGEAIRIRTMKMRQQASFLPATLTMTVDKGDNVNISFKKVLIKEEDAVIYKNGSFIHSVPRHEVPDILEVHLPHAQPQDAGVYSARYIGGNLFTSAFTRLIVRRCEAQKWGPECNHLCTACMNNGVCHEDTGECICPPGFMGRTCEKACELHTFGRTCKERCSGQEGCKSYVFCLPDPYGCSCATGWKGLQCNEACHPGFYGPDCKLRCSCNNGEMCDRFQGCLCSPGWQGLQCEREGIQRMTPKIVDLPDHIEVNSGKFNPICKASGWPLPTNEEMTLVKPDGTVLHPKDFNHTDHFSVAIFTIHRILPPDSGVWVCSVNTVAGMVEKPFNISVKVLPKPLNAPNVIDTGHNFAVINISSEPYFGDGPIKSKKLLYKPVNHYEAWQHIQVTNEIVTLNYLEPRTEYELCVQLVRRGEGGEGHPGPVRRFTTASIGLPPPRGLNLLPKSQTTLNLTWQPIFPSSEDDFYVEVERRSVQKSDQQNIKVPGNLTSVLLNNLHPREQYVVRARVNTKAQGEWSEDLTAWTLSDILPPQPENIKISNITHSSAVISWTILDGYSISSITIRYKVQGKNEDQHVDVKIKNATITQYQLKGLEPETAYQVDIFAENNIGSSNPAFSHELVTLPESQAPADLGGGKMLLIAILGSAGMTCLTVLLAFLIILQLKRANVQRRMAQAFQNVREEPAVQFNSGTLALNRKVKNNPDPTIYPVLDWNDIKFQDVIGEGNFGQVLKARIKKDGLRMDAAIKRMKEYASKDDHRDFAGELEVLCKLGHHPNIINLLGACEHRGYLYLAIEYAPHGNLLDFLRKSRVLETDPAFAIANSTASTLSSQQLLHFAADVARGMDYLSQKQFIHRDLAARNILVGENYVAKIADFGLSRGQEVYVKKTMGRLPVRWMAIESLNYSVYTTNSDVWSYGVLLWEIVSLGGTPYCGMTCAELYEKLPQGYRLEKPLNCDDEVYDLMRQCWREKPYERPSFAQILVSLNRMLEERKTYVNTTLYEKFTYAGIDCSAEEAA
Method: Tie2 Fluorescence Polarization Kinase Activity Assay: (TIE2-FP)
Activation of Recombinant Tie2 Activation:
Recombinant GST-Tie2 is activated by incubating the enzyme in 20 mM Tris-HCl, pH 7.5, 12 mM MgCl2, 100 mM NaCl, 20 μM sodium vanidate, 1 mM DTT and 300 μM ATP at room temperature for 2 hours. The activation mixture is then passed through a NAP-25 desalting column (Pharmacia Biotech cat. no. 17-0852-02) to remove the free ATP. The activated enzyme is stored as aliquots at −80° C. in 20 mM Tris-HCl, pH 7.5 and 100 mM NaCl.
The final assay conditions are 50 mM HEPES, pH 7.5, 5% DMSO (when screening compounds), 200 μM ATP, 5 mM MgCl2, 1 mM DTT, 50 μM sodium vanidate, 1 nM activated enzyme, and 200 μM peptide. IC50's of compounds are measured under subsaturating ATP (200 μM) and varying concentrations of activated Tie2 and peptide substrate (RFWKYEFWR-OH; MW 1873 Da, TFA salt). Panvera Anti-phosphotyrosine antibody (Cat#P2840) and PTK Green Tracer (Cat#P2842) are used to detect the phosphorylated peptide. Polarization is measured on a TECAN Polarion in 138-second cycles for 30 minutes at room temperature. IC50's are then determined from the % polarization using normal calculation methods. The IC50 values are converted to pIC50 values, i.e., −log IC50 in Molar concentration.

T1 sequence (P35968 786-1356 limits assumed): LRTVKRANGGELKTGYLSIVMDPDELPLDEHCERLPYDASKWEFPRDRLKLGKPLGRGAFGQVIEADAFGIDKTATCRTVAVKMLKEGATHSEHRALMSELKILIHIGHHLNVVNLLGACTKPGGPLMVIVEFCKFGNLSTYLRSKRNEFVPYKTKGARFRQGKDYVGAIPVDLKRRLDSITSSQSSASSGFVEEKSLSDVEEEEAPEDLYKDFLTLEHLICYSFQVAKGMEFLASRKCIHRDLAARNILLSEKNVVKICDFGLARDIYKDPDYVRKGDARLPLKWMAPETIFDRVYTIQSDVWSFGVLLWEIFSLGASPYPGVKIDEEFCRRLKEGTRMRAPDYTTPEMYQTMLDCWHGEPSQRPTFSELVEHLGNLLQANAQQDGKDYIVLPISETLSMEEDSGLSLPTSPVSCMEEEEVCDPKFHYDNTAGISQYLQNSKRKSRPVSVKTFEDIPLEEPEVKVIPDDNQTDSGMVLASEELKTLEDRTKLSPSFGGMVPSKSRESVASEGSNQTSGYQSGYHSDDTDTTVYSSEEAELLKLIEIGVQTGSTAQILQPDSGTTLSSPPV

O=C(Nc1ccc(-c2n[nH]c3ncnc(N(CCN4CCOCC4)Cc4ccccc4)c23)cc1)Nc1cc(C(F)(F)F)ccc1F [Example 50, 1-{4-[Benzyl-(2-morpholin-4-yl-ethylamino)-1H-pyrazolo[3,4-d]pyrimidin-3-yl]-phenyl}-3-(fluoro-trifluoromethyl-phenyl)-urea]
VEGFR2 PIC50 VEGFR-E2 assay [1]: ++ (++ = PIC50 = 6.00 to less than 7.00) | VEGFR3 PIC50 VEGFR-3-HTRF assay [2]: + (+ = PIC50 = 5.00 to less than 6.00) | IC50 [3]: < 100 nM

CCc1cccc(NC(=O)Nc2ccc(-c3nn(Cc4ccccc4)c4nc(NCCN5CCOCC5)ncc34)cc2)c1 [Example 52, 1-{4-[Benzyl-(2-morpholin-4-yl-ethylamino)-1H-pyrazolo[3,4-d]pyrimidin-3-yl]-phenyl}-3-(ethyl-phenyl)-urea]
VEGFR2 PIC50 VEGFR-E2 assay [1]: + (+ = PIC50 = 5.00 to less than 6.00) | VEGFR3 PIC50 VEGFR-3-HTRF assay [2]: + (+ = PIC50 = 5.00 to less than 6.00) | IC50 [3]: 100 to 300 nM
